Measurements taken from the supplement of paper PMC11451515.

Tested on: P12-Ichikawa
Test: cell viability relative to DMSO control; higher = less cytotoxic
Settings: 48 h
How it was run: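 Library compounds in DMSO were pin-dosed in an 11-point threefold series (47 μM to 0.79 nM) onto leukemia cells in 1536-well plates (5 μl). Plates held 500 cells/well of NOMO1 or SEM or 1000 cells/well of P12-Ichikawa, each adapted for at least four passages in each medium. Luminescence was read with CellTiter-Glo One after 48 h at 37°C. Viability means the per-plate percentage relative to DMSO wells, using cell-free wells as background.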

[1] = HPLM + 10% dialyzed FBS, 0.000781 µM
[2] = HPLM + 10% dialyzed FBS, 0.00234 µM
[3] = HPLM + 10% dialyzed FBS, 0.00702 µM
[4] = HPLM + 10% dialyzed FBS, 0.0211 µM
[5] = HPLM + 10% dialyzed FBS, 0.0632 µM
[6] = HPLM + 10% dialyzed FBS, 0.19 µM
[7] = HPLM + 10% dialyzed FBS, 0.569 µM
[8] = HPLM + 10% dialyzed FBS, 1.71 µM
[9] = HPLM + 10% dialyzed FBS, 5.12 µM
[10] = HPLM + 10% dialyzed FBS, 15.4 µM
[11] = HPLM + 10% dialyzed FBS, 46.1 µM
[12] = RPMI 5 mM glucose + 10% dialyzed FBS, 0.000781 µM
[13] = RPMI 5 mM glucose + 10% dialyzed FBS, 0.00234 µM
[14] = RPMI 5 mM glucose + 10% dialyzed FBS, 0.00702 µM
[15] = RPMI 5 mM glucose + 10% dialyzed FBS, 0.0211 µM
[16] = RPMI 5 mM glucose + 10% dialyzed FBS, 0.0632 µM
[17] = RPMI 5 mM glucose + 10% dialyzed FBS, 0.19 µM
[18] = RPMI 5 mM glucose + 10% dialyzed FBS, 0.569 µM
[19] = RPMI 5 mM glucose + 10% dialyzed FBS, 1.71 µM
[20] = RPMI 5 mM glucose + 10% dialyzed FBS, 5.12 µM
[21] = RPMI 5 mM glucose + 10% dialyzed FBS, 15.4 µM
[22] = RPMI 5 mM glucose + 10% dialyzed FBS, 46.1 µM
[23] = RPMI 5 mM glucose + 10% FBS, 0.000781 µM
[24] = RPMI 5 mM glucose + 10% FBS, 0.00234 µM
[25] = RPMI 5 mM glucose + 10% FBS, 0.00702 µM
[26] = RPMI 5 mM glucose + 10% FBS, 0.0211 µM
[27] = RPMI 5 mM glucose + 10% FBS, 0.0632 µM
[28] = RPMI 5 mM glucose + 10% FBS, 0.19 µM
[29] = RPMI 5 mM glucose + 10% FBS, 0.569 µM
[30] = RPMI 5 mM glucose + 10% FBS, 1.71 µM
[31] = RPMI 5 mM glucose + 10% FBS, 5.12 µM
[32] = RPMI 5 mM glucose + 10% FBS, 15.4 µM
[33] = RPMI 5 mM glucose + 10% FBS, 46.1 µM

Row | SMILES | cell viability [1] | cell viability [2] | cell viability [3] | cell viability [4] | cell viability [5] | cell viability [6] | cell viability [7] | cell viability [8] | cell viability [9] | cell viability [10] | cell viability [11] | cell viability [12] | cell viability [13] | cell viability [14] | cell viability [15] | cell viability [16] | cell viability [17] | cell viability [18] | cell viability [19] | cell viability [20] | cell viability [21] | cell viability [22] | cell viability [23] | cell viability [24] | cell viability [25] | cell viability [26] | cell viability [27] | cell viability [28] | cell viability [29] | cell viability [30] | cell viability [31] | cell viability [32] | cell viability [33]
1 | CC1(C)C(=O)N(CCN2CCC(C(=O)c3ccc(F)cc3)CC2)c2ccccc21 | 112% | 116% | 117% | 120% | 118% | 123% | 126% | 122% | 120% | 120% | 113% | 109% | 110% | 118% | 123% | 126% | 125% | 121% | 123% | 115% | 97.9% | 93.5% |  |  |  |  |  |  |  |  |  |  | 
2 | CC1=CC=CC=C1CN2C(=O)C/3=C(/CCN(CC4=CC=CC=C4)C3)N\5CC\N=C25 | 124% | 120% | 119% | 119% | 119% | 112% | 107% | 106% | 81.9% | 53.4% | 57.5% |  |  |  |  |  |  |  |  |  |  |  | 129% | 109% | 117% | 119% | 127% | 114% | 118% | 122% | 79.8% | 45.7% | 45.2%
3 | C[S+](=O)([O-])N(Cc1ccco1)CC(O)Cn1c2ccccc2c2ccccc21 (stereo unspecified) | 94.2% | 88.9% | 94.2% | 99.9% | 96.3% | 98.8% | 94.8% | 89.8% | 89.3% | 85.8% | 56.6% | 86% | 90.7% | 97% | 97.1% | 94.4% | 87.1% | 81.3% | 88.8% | 85.7% | 73.4% | 41.7% | 92% | 94% | 92% | 89.2% | 97.7% | 99.2% | 91.9% | 83.6% | 76.4% | 79.2% | 42.1%
4 | COc1cc2c(Oc3ccc(NC(=O)C4(C(=O)Nc5ccc(F)cc5)CC4)cc3F)ccnc2cc1OCCCN1CCOCC1 | 86.3% | 90.5% | 87% | 88.8% | 81.2% | 81.8% | 78.5% | 38.7% | 8.94% | 8.26% | 5.1% | 86.2% | 82.9% | 86.6% | 89.3% | 85.4% | 80% | 88.2% | 44.6% | 14.7% | 12.4% | 4.34% | 83.8% | 90.3% | 84.8% | 83.5% | 85.7% | 74.3% | 77.1% | 59.5% | 10% | 11% | 4.54%
5 | CCCCNc1cc(C(=O)O)cc([S+](N)(=O)[O-])c1Oc1ccccc1 | 117% | 116% | 118% | 116% | 124% | 120% | 121% | 118% | 117% | 128% | 127% | 111% | 119% | 115% | 115% | 118% | 117% | 116% | 113% | 124% | 124% | 116% |  |  |  |  |  |  |  |  |  |  | 
6 | CN(C)C(=O)c1ccc([S+](=O)([O-])c2ccc(NC(=O)[C@@](C)(O)C(F)(F)F)c(Cl)c2)cc1 | 105% | 111% | 107% | 113% | 116% | 117% | 114% | 117% | 100% | 100% | 43.3% | 106% | 110% | 102% | 118% | 114% | 117% | 118% | 106% | 103% | 72.5% | 63.5% | 98% | 98.1% | 107% | 108% | 115% | 110% | 97.9% | 101% | 93.9% | 80.9% | 62.6%
7 | CC(C)Oc1cc(Nc2nc(N[C@@H](C)c3ccc(F)cn3)ncc2Cl)n[nH]1 | 111% | 111% | 116% | 112% | 110% | 115% | 106% | 13.3% | 14.7% | 29.6% | 41.1% | 113% | 113% | 108% | 114% | 115% | 116% | 105% | 27.9% | 30.5% | 46.6% | 55.5% | 104% | 92.9% | 105% | 106% | 108% | 110% | 104% | 15.2% | 17% | 27.5% | 40%
8 | C1CCC(C(CC2CCCCN2)C2CCCCC2)CC1 (stereo unspecified) | 115% | 117% | 124% | 119% | 128% | 124% | 129% | 127% | 119% | 123% | 88.3% | 109% | 127% | 107% | 122% | 123% | 124% | 122% | 126% | 117% | 115% | 67.7% | 118% | 123% | 124% | 115% | 128% | 134% | 126% | 119% | 131% | 106% | 54.2%
